Literature values as cited in patent US11883631B2 (priority 2015, dated 2024).

Legend:
[1] = EEG monitor effect site; 18-60 yr
[2] = in vivo
[3] = 10 mg/s vs 2 mg/s
[4] = in vivo; remark: listed apart in the source

For `CC(C)c1cccc(C(C)C)c1O` [propofol], the “Reductions in systolic blood pressure (SBP)” value (during induction of anesthesia with propofol) is listed as “greater than 25%”, the “plasma concentration at which propofol may significantly decrease SBP” value (patients aged 20-85 yr, effect more evident in elderly (>70 yr)) is listed as greater than 10000 ng/mL and the ke0 [1] is listed as 0.456 min⁻¹. The “effect-site concentration at burst suppression onset” value [2] was “higher than 8 μg/ml”, the “drop in mean arterial pressure, higher vs lower infusion rate” value [3] was “larger drop in mean arterial pressure” and the “Propofol concentration associated with awakening from anesthesia” value [4] was less than 1.8 µg/mL.
